As usually defined, the inhibition is the percentage by which the read-out fell short of the control.

This passage reports inhibition results from patent US11339161B2, “Triazolo pyridines as modulators of gamma-secretase” (Boehringer Ingelheim International GmbH, priority 2017, dated 2022).

One assay deals with T1, MAP4K2 (GCK) (Homo sapiens, UniProt Q12851).
T1 sequence (Q12851 1-820): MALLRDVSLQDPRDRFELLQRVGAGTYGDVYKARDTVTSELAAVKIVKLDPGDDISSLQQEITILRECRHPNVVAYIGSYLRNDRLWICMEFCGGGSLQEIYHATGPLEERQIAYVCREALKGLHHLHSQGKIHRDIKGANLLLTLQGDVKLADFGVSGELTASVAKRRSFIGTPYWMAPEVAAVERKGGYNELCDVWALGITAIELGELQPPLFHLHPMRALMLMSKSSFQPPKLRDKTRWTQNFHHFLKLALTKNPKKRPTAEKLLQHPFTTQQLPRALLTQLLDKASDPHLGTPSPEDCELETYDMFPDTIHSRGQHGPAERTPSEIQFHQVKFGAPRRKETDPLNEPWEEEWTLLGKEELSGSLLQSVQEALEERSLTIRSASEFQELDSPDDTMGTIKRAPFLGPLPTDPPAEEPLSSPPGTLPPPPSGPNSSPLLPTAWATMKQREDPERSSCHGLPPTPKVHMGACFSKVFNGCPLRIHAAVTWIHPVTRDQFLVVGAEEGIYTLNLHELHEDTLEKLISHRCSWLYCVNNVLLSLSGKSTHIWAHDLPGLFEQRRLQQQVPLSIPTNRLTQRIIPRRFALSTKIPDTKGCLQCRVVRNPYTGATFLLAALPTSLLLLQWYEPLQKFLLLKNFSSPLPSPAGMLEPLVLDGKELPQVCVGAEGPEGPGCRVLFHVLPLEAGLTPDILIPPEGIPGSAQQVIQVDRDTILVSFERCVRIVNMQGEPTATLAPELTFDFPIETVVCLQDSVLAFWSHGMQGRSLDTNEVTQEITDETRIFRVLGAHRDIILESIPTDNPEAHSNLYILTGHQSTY
The experiment in a line: Z'-LYTE SelectScreen biochemical kinase assay MAP4K2 (GCK). The text has this: (§1) Thermo Fisher Scientific SelectScreen™ Biochemical Kinase Profiling Service Z′-LYTE™ Screening Protocol and Assay Conditions Assay Theory
(§2) The […] biochemical assay employs a fluorescence-based, coupled-enzyme format and is based on the differential sensitivity of phosphorylated and non-phosphorylated peptides to proteolytic cleavage. The peptide substrate is labeled with two fluorophores—one at each end—that make up a FRET pair. In the primary reaction, the kinase transfers the gamma-phosphate of ATP to a single tyrosine, serine or threonine residue in a synthetic FRET-peptide. In the secondary reaction, a site-specific protease recognizes and cleaves non-phosphorylated FRET-peptides. Phosphorylation of FRET-peptides suppresses cleavage by the Development Reagent. Cleavage disrupts FRET between the donor (i.e., coumarin) and acceptor (i.e., fluorescein) fluorophores on the FRET-peptide, whereas uncleaved, phosphorylated FRET-peptides maintain FRET. A ratiometric method, which calculates the ratio (Emission Ratio=Coumarin emission (445 nm)/Fluorescein emission (520 nm)) of donor emission to acceptor emission after excitation of the donor fluorophore at 400 nm, is used to quantitate reaction progress, as shown in the equation below. A significant benefit of this ratiometric method for quantitating reaction progress is the elimination of well-to-well variations in FRET-peptide concentration and signal intensities. As a result, the assay yields very high Z′-factor values (>0.7) at a low percent phosphorylation. Both cleaved and uncleaved FRET-peptides contribute to the fluorescence signals and therefore to the Emission Ratio. The extent of phosphorylation of the FRET-peptide can be calculated from the Emission Ratio. The Emission Ratio will remain low if the FRET-peptide is phosphorylated (i.e., no kinase inhibition) and will be high if the FRET-peptide is non-phosphorylated (i.e., kinase inhibition).
(§3) The Test Compounds are screened in 1% DMSO (final) in the well. For 10 point titrations, 3-fold serial dilutions are conducted from the starting concentration of the customer's choosing.
(§4) All Peptide/Kinase Mixtures are diluted to a 2× working concentration in the appropriate Kinase Buffer (see section Kinase Specific Assay Conditions for a complete description).
(§5) All ATP Solutions are diluted to a 4× working concentration in Kinase Buffer (50 mM HEPES pH 7.5, 0.01% BRIJ-35, 10 mM MgCl2, 1 mM EGTA). ATP Km apparent is previously determined using a Z″-LYTE assay.
(§6) The Development Reagent is diluted in Development Buffer (see section Kinase-Specific Assay Conditions—Direct and Cascade for a complete description).
(§7) Bar-coded Corning, low volume NBS, black 384-well plate (Corning Cat. #4514) • 1. 100 nL—100× Test Compound in 100% DMSO • 2. 2.4 μL—Kinase buffer • 3. 5 μL—2× Peptide/Kinase Mixture • 4. 2.5 μL—4×ATP Solution • 5. 30—second plate shake • 6. 60—minute Kinase Reaction incubation at room temperature • 7. 5 μL—Development Reagent Solution • 8. 30—second plate shake • 9. 60—minute Development Reaction incubation at room temperature • 10. Read on fluorescence plate reader and analyze the data Z′-LYTE Assay Controls
(§8) SelectScreen Kinase Profiling Service uses XLfit from IDBS. The dose response curve is curve fit to model number 205 (sigmoidal dose-response model).
The 2×MAP4K2 (GCK)/Ser/Thr 07 mixture is prepared in 50 mM HEPES pH 7.5, 0.01% BRIJ-35, 10 mM MgCl2, 1 mM EGTA. The final 10 μL Kinase Reaction consists of 0.11-3 ng MAP4K2 (GCK) and 2 μM Ser/Thr 07 in 50 mM HEPES pH 7.5, 0.01% BRIJ-35, 10 mM MgCl2, 1 mM EGTA. After the 1 hour Kinase Reaction incubation, 5 μL of a 1:45000 dilution of Development Reagent A is added.

A further assay addresses MAP4K4 (HGK) (Homo sapiens, UniProt O95819). The experiment in a line: Z'-LYTE SelectScreen biochemical kinase assay MAP4K4 (HGK).
Source text: as §1, §2, §3, §4, §5, §6, §7, §8
The 2×MAP4K4 (HGK)/Ser/Thr 07 mixture is prepared in 50 mM HEPES pH 7.5, 0.01% BRIJ-35, 10 mM MgCl2, 1 mM EGTA. The final 10 μL Kinase Reaction consists of 0.36-1.82 ng MAP4K4 (HGK) and 2 μM Ser/Thr 07 in 50 mM HEPES pH 7.5, 0.01% BRIJ-35, 10 mM MgCl2, 1 mM EGTA. After the 1 hour Kinase Reaction incubation, 5 μL of a 1:45000 dilution of Development Reagent A is added.

Where [1] appears, read: 10 μmolar compound concentration, ATP at Km app, read-out: MAP4K2 (GCK) inhibition.
Setting [2] is: read-out: % Inhibition mean MAP4K2 (GCK).
Setting [3] is: 10 μmolar compound concentration, ATP at Km app, read-out: MAP4K4 (HGK) inhibition.
The mark [4] stands for this setting: read-out: % Inhibition mean MAP4K4 (HGK).

Read-outs that look alike come from different tables or passages of the source.

MAP4K4 (HGK), sequence (O95819 whole entry): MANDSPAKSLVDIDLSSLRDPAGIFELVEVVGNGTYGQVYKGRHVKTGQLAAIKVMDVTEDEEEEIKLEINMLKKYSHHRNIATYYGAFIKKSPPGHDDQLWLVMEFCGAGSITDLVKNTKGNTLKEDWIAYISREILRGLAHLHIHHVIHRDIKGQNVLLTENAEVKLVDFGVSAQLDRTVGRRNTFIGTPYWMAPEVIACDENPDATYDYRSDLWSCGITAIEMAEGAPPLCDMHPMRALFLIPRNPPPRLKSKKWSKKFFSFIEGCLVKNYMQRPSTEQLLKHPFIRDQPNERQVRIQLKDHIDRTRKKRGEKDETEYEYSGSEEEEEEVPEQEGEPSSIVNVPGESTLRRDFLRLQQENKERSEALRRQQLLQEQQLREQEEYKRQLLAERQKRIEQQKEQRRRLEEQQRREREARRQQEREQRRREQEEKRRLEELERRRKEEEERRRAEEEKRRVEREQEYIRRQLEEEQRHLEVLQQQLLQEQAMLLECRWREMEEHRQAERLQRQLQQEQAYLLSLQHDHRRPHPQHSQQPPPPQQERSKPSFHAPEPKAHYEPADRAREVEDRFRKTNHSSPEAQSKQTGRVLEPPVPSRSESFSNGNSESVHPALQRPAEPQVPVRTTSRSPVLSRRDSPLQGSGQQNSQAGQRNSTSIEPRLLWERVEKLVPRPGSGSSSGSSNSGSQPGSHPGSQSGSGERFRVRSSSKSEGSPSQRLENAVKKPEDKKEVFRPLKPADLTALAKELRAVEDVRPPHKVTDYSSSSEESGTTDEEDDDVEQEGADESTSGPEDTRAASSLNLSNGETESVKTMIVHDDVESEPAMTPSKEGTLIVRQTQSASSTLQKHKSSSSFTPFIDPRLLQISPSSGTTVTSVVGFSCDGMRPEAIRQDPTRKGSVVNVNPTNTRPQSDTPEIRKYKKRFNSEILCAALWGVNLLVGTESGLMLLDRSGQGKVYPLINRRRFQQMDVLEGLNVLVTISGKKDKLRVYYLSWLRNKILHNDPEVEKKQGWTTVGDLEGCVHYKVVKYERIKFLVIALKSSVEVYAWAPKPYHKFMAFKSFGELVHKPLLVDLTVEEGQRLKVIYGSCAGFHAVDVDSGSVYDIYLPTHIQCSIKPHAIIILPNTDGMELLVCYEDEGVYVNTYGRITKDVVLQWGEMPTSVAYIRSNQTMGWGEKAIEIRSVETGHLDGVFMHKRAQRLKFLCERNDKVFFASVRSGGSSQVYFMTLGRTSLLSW

For `CCCCCn1ncc2c1CCC(Nc1nc3c(-c4ccc(F)cc4C)cccn3n1)C2` (stereo not shown) [Example 47, [8-(4-fluoro-2-methyl-phenyl)-[1,2,4]triazolo[1,5-a]pyridine-2-yl]-(1-pentyl-4,5,6,7-tetrahydro-1H-indazol-5-yl)-amine], the inhibition at 10 µM at MAP4K2 (GCK) (setting [1]) is less than 40%; at MAP4K2 (GCK) (setting [2]), 11%; at MAP4K4 (HGK) (setting [3]), less than 40%; at MAP4K4 (HGK) (setting [4]) it was 32%.
With `CCCn1ncc2c1CCC(Nc1nc3c(-c4ccc(F)cc4C)cccn3n1)C2` (stereo not shown) [Example 43, [8-(4-fluoro-2-methyl-phenyl)-[1,2,4]triazolo[1,5-a]pyridine-2-yl]-(1-propyl-4,5,6,7-tetrahydro-1H-indazol-5-yl)-amine], the inhibition at 10 µM is less than 40% at MAP4K2 (GCK) (setting [1]), 9% on MAP4K2 (GCK) (setting [2]), 40 to 80% at MAP4K4 (HGK) (setting [3]) and 40% on MAP4K4 (HGK) (setting [4]).
Regarding `CCn1nc(Cl)c2c1CCC(Nc1nc3c(-c4ccc(F)cc4C)cccn3n1)C2` (stereo not shown) [Example 48, (3-Chloro-1-ethyl-4,5,6,7-tetrahydro-1H-indazol-5-yl)-[8-(4-fluoro-2-methyl-phenyl)-[1,2,4]triazolo[1,5-a]pyridine-2-yl]-amine], the inhibition at 10 µM on MAP4K2 (GCK) (setting [1]) is less than 40%; on MAP4K2 (GCK) (setting [2]), 16%; on MAP4K4 (HGK) (setting [3]), 40 to 80%; at MAP4K4 (HGK) (setting [4]) it was 50%.
As to `CCn1ncc2c1CCC(Nc1nc3c(-c4cncc(OC)c4)cccn3n1)C2` (stereo not shown) [Example 70, (1-Ethyl-4,5,6,7-tetrahydro-1H-indazol-5-yl)-[8-(5-methoxy-pyridin-3-yl)-[1,2,4]triazolo[1,5-a]pyridine-2-yl]-amine], the inhibition at 10 µM at MAP4K2 (GCK) (setting [1]) was less than 40%; on MAP4K2 (GCK) (setting [2]), 7%; at MAP4K4 (HGK) (setting [3]) it was 40 to 80%; at MAP4K4 (HGK) (setting [4]), 56%.
`CCCCn1ncc2c1CCC(Nc1nc3c(-c4ccc(F)cc4C)cccn3n1)C2` (stereo not shown) [Example 46, [8-(4-fluoro-2-methyl-phenyl)-[1,2,4]triazolo[1,5-a]pyridine-2-yl]-(1-butyl-4,5,6,7-tetrahydro-1H-indazol-5-yl)-amine]: the inhibition at 10 µM at MAP4K2 (GCK) (setting [1]) was less than 40%; at MAP4K2 (GCK) (setting [2]), 19%; at MAP4K4 (HGK) (setting [3]), 40 to 80%; at MAP4K4 (HGK) (setting [4]), 48%.
On to `CCn1ncc2c1C(C)CC(Nc1nc3c(-c4cc(F)c(F)c(F)c4)cccn3n1)C2` (stereo not shown) [Example 49, (1-Ethyl-7-methyl-4,5,6,7-tetrahydro-1H-indazol-5-yl)-[8-(3,4,5-trifluoro-phenyl)-[1,2,4]triazolo[1,5-a]pyridine-2-yl]-amine], for which the inhibition at 10 µM at MAP4K2 (GCK) (setting [1]) was less than 40%; at MAP4K2 (GCK) (setting [2]) it was 17%; at MAP4K4 (HGK) (setting [3]), 40 to 80%; at MAP4K4 (HGK) (setting [4]), 54%.
Regarding `CC1(C)NC(=O)c2ccc(Nc3nc4c(-c5cccc(F)c5)cccn4n3)cc21` [Cpd. 302 in WO09155551, reference compound], the inhibition at 10 µM at MAP4K2 (GCK) (setting [1]) was more than 80%; on MAP4K2 (GCK) (read-out: % Inhibition mean) it was 99%; at MAP4K4 (HGK) (setting [3]) it was more than 80%; on MAP4K4 (HGK) (read-out: % Inhibition mean), 99%.
On to `CCn1ncc2c1CCC(Nc1nc3c(-c4cccnc4OC)cccn3n1)C2` (stereo not shown) [Example 69, (1-Ethyl-4,5,6,7-tetrahydro-1H-indazol-5-yl)-[8-(2-methoxy-pyridin-3-yl)-[1,2,4]triazolo[1,5-a]pyridine-2-yl]-amine], for which the inhibition at 10 µM at MAP4K2 (GCK) (setting [1]) is less than 40%; on MAP4K2 (GCK) (setting [2]), 9%; at MAP4K4 (HGK) (setting [3]), less than 40%; on MAP4K4 (HGK) (setting [4]), 39%.
For `CC1(C)C(=O)Nc2ccc(Nc3nc4c(-c5cccc(F)c5)cccn4n3)cc21` [Cpd. 263 in WO09155551, reference compound], the inhibition at 10 µM at MAP4K2 (GCK) (setting [1]) is more than 80%; at MAP4K2 (GCK) (read-out: % Inhibition mean) it was 98%; at MAP4K4 (HGK) (setting [3]), more than 80%; on MAP4K4 (HGK) (read-out: % Inhibition mean), 98%.
As for `Cc1cc(F)ccc1-c1cccn2nc(NC3CCc4c(cnn4C(C)C)C3)nc12` (stereo not shown) [Example 44, [8-(4-fluoro-2-methyl-phenyl)-[1,2,4]triazolo[1,5-a]pyridine-2-yl]-(1-isopropyl-4,5,6,7-tetrahydro-1H-indazol-5-yl)-amine], the inhibition at 10 µM at MAP4K2 (GCK) (setting [1]) is less than 40%; at MAP4K2 (GCK) (setting [2]) it was 26%; at MAP4K4 (HGK) (setting [3]), less than 40%; on MAP4K4 (HGK) (setting [4]), 37%.
For the compound `CCn1ncc2c1CCC(Nc1nc3c(-c4ccc(F)cc4C)cccn3n1)C2` (stereo not shown) [Example 42, (1-Ethyl-4,5,6,7-tetrahydro-1H-indazol-5-yl)-[8-(4-fluoro-2-methyl-phenyl)-[1,2,4]triazolo[1,5-a]pyridine-2-yl]-amine], the inhibition at 10 µM at MAP4K2 (GCK) (setting [1]) was less than 40%; on MAP4K2 (GCK) (setting [2]), 21%; at MAP4K4 (HGK) (setting [3]), less than 40%; on MAP4K4 (HGK) (setting [4]), 37%.
As for `CCc1nn(C)c2c1CCC(Nc1nc3c(-c4ccc(F)cc4C)cccn3n1)C2` (stereo not shown) [Example 54, (3-Ethyl-1-methyl-4,5,6,7-tetrahydro-1H-indazol-6-yl)-[8-(4-fluoro-2-methyl-phenyl)-[1,2,4]triazolo[1,5-a]pyridine-2-yl]-amine], the inhibition at 10 µM at MAP4K2 (GCK) (setting [1]) is less than 40%; on MAP4K2 (GCK) (setting [2]) it was 27%; on MAP4K4 (HGK) (setting [3]), less than 40%; on MAP4K4 (HGK) (setting [4]), 25%.
Turning to `CCn1ncc2c1CCC(Nc1nc3c(-c4ccc(F)cc4)cccn3n1)C2` (stereo not shown) [Example 55, (1-Ethyl-4,5,6,7-tetrahydro-1H-indazol-5-yl)-[8-(4-fluoro-phenyl)-[1,2,4]triazolo[1,5-a]pyridine-2-yl]-amine], the inhibition at 10 µM on MAP4K2 (GCK) (setting [1]) is less than 40%; at MAP4K2 (GCK) (setting [2]), 30%; at MAP4K4 (HGK) (setting [3]) it was 40 to 80%; on MAP4K4 (HGK) (setting [4]) it was 51%.
